From patent US7507708B2, “Antitumoral compounds” (Pharma Mar, S.A.U., priority 2003, dated 2009)

Key:
A-549 = experiment: In vitro cytotoxic activity, SRB assay; type: cell-based, human; details: A-549, 48 hours exposure; for CC50: read-out: LC50 (the source's name)
Excerpt: (§1) Plates are washed with deionized water and dried.

DU-145 = experiment: In vitro cytotoxic activity, SRB assay; type: cell-based, human; details: DU-145, 48 hours exposure
Excerpt: as §1

HELA-APL = experiment: In vitro cytotoxic activity, SRB assay; type: cell-based, human; details: 48 hours exposure; for CC50: read-out: LC50 (the source's name)
Excerpt: as §1

HT-29 = experiment: In vitro cytotoxic activity, SRB assay; type: cell-based, human; details: HT-29, 48 hours exposure; for CC50: read-out: LC50 (the source's name)
Excerpt: as §1

IGROV-ET = experiment: In vitro cytotoxic activity, SRB assay; type: cell-based, human; details: 48 hours exposure
Excerpt: as §1

IGROV = experiment: In vitro cytotoxic activity, SRB assay; type: cell-based, human; details: 48 hours exposure
Excerpt: as §1

K-562 = experiment: In vitro cytotoxic activity, SRB assay; type: cell-based, human; details: K-562, 48 hours exposure
Excerpt: as §1

LN-caP = experiment: In vitro cytotoxic activity, SRB assay; type: cell-based, human; details: 48 hours exposure
Excerpt: as §1

LOVO-DOX = experiment: In vitro cytotoxic activity, SRB assay; type: cell-based, human; details: 48 hours exposure
Excerpt: as §1

LOVO = experiment: In vitro cytotoxic activity, SRB assay; type: cell-based, human; details: 48 hours exposure
Excerpt: as §1

MEL-28 = experiment: In vitro cytotoxic activity, SRB assay; type: cell-based, human; details: MEL-28, 48 hours exposure
Excerpt: as §1

PANC-1 = experiment: In vitro cytotoxic activity, SRB assay; type: cell-based, human; details: PANC-1, 48 hours exposure
Excerpt: as §1

SK-BR-3 = experiment: In vitro cytotoxic activity, SRB assay; type: cell-based, human; details: SK-BR-3, 48 hours exposure; for CC50: read-out: LC50 (the source's name)
Excerpt: as §1

[1] = test system: NRK-52E, normal rat kidney cell; experiment: In vitro toxicity to normal cells, MTS assay; type: cell-based; details: 24 h
Method: (§3) In order to assess the cytotoxicity of the drugs to normal cells, we used 96 well plates plated at a density of 5000 cells per well with normal cell lines maintained as per the directions of the ATCC: AML-12, normal mouse liver cells and NRK-52E, normal rat kidney cell. The cells in each plate were permitted to settle overnight before adding the test drug. To each well (100 μl medium) 10 μl of drug in media was added at varying concentrations (1×10^−10-0.01 mg/ml final concentration) and further incubated overnight at 37° C. with 5% CO2. All experiments were repeated at least 3 times and were assayed in duplicate. After 24 h the MTS assay (CellTiter 96 aqueous) was performed according to the manufacturer's (Promega) directions (for all cell types). Cell viability (mitochondrial activity) is determined via enzymatic conversion of the formazan substrate.

In vivo MTD in CD-1 mice = details: mouse, unit inferred; for MTD at 5 days: 5 daily doses; for MTD: intravenous, single bolus
Method: (§2) The Maximum Tolerated Dose is determined in CD-1 and athymic mice (both genders) for each drug after single bolus administration and after 5 dayly doses. The results are given in table IV, there is no significant difference between the compounds 5 methylhexanoic KF and (4S)-methylhexanoic KF.

[2] = In vivo MTD in athymic mice; details: mouse; for MTD at 5 days: 5 daily doses; for MTD: intravenous, single bolus
Method: as §2

female mice = details: cited from earlier work
HELA = experiment: In vitro cytotoxic activity, SRB assay; details: for CC50: read-out: LC50, 48 hours exposure
Method: The finality of these assays is to interrupt the growth of a “in vitro” tumor cell culture by means a continued exhibition of the cells to the sample to be testing.
Most of the cell lines are obtained from American Type Culture Collection (ATCC) derived from different human cancer types.
Cells are maintained in RPMI 1640 10% FBS, supplemented with 0.1 g/l penicillin and 0.1 g/l streptomycin sulfate and then incubated at 37° C., 5% CO2 and 98% humidity. For the experiments, cells were harvested from subconfluent cultures using trypsin and resuspended in fresh medium before plating.
Cells are seeded in 96 well microtiter plates, at 5×10^3 cells per well in aliquots of 195 μl medium, and they are allowed to attach to the plate surface by growing in drug free medium for 18 hours. Afterward, samples are added in aliquots of 5 μl in a ranging from 10 to 10^−8 μg/ml, dissolved in DMSO/EtOH/PBS (0.5:0.5:99). After 48 hours exposure, the antitumor effect are measured by the SRB methodology: cells are fixed by adding 50 μl of cold 50% (wt/vol) trichloroacetic acid (TCA) and incubating for 60 minutes at 4° C. Plates are washed with deionized water and dried. One hundred μl of SRB solution (0.4% wt/vol in 1% acetic acid) is added to each microtiter well and incubated for 10 minutes at room temperature. Unbound SRB is removed by washing with 1% acetic acid. Plates are air dried and bound stain is solubilized with Tris buffer. Optical densities are read on a automated spectrophotometric plate reader at a single wavelength of 490 nm.
The values for mean +/− SD of data from triplicate wells are calculated. Some parameters for cellular responses can be calculated: GI=growth inhibition, TGI=total growth inhibition (cytostatic effect) and LC=cell killing (cytotoxic effect).

[3] = test system: AML-12, normal mouse liver cells; experiment: In vitro toxicity to normal cells, MTS assay; details: read-out: ALM Liver IC50, 24 h
Method: as §3

[4] = female CD-1 mice, read-out: Female CD-1 mice MTD 5DD
[5] = female CD-1 mice, read-out: Female CD-1 mice MTD Bolus
[6] = male CD-1 mice, read-out: Male CD-1 mice MTD Bolus
[7] = male CD-1 mice, read-out: Male CD-1 mice MTD 5DD
[8] = female athymic mice, no unit printed in table (325 μg/kg/day), read-out: Female athymic mice MTD 5DD
[9] = female athymic mice, unit inferred, read-out: Female athymic mice MTD Bolus
[10] = male athymic mice, unit inferred, read-out: Male athymic mice MTD Bolus
[11] = male athymic mice, unit inferred, read-out: Male athymic mice MTD 5DD

## C/C=C1\NC(=O)[C@H](Cc2ccccc2)NC(=O)[C@@H](C(C)C)NC(=O)[C@@H]([C@@H](C)CC)NC(=O)[C@H](NC(=O)[C@H](NC(=O)[C@H](CCCN)NC(=O)[C@H]2CCCN2C(=O)[C@H](NC(=O)[C@@H](NC(=O)[C@@H](NC(=O)[C@H](NC(=O)CCCC(C)C)C(C)C)[C@@H](C)O)C(C)C)C(C)C)[C@@H](C)CC)[C@@H](C)OC(=O)[C@H](C(C)C)NC1=O [5-methylhexanoic KF, reference compound]
A-549
  GI50: 0.866 µM
  CC50: 3.78 µM
DU-145
  GI50: 0.751 µM
  LC50: 3.6 µM
HELA-APL
  GI50: 1.06 µM
  CC50: 4.43 µM
HT-29
  GI50: 0.141 µM
  CC50: 0.562 µM
IGROV-ET
  GI50: 0.447 µM
  LC50: 3.09 µM
IGROV
  GI50: 0.42 µM
  LC50: 3.8 µM
K-562
  GI50: 1.54 µM
  LC50 (50% lethal concentration): 5.66 µM
LN-caP
  GI50: 0.961 µM
  LC50 (50% lethal concentration): 5.57 µM
LOVO-DOX
  GI50: 0.162 µM
  LC50: 0.62 µM
LOVO
  GI50: 0.12 µM
  LC50 (50% lethal concentration): 0.428 µM
MEL-28
  GI50: 0.69 µM
  LC50: 3.55 µM
PANC-1
  GI50: 1.38 µM
  LC50: 6.07 µM
SK-BR-3
  GI50: 0.398 µM
  CC50: 6.77 µM
[1]
  IC50: 2.7 µM
In vivo MTD in CD-1 mice; [4]
  MTD at 5 days: 0.175 to 0.35 mg/kg
In vivo MTD in CD-1 mice; [5]
  MTD: 0.2 mg/kg
In vivo MTD in CD-1 mice; [6]
  MTD: 0.3 mg/kg
In vivo MTD in CD-1 mice; [7]
  MTD at 5 days: 0.175 to 0.35 mg/kg
[2]; [8]
  MTD at 5 days: 0.325 mg/kg
[2]; [9]
  MTD: 0.325 mg/kg
[2]; [10]
  MTD: 0.35 mg/kg
[2]; [11]
  MTD at 5 days: 0.35 mg/kg
Female mice; 280 μg/kg, once daily times five schedule
  tolerability of repeated administration: without any apparent evidence of acute toxicity
Female mice; female mice, single bolus iv injection
  maximum tolerated dose (MTD): 0.28 mg/kg
HELA; 48 hours exposure
  GI50: 0.839 µM
HELA
  CC50: 4.26 µM
[3]
  IC50: 3.4 µM

## C/C=C1\NC(=O)[C@H](Cc2ccccc2)NC(=O)[C@@H](C(C)C)NC(=O)[C@@H]([C@@H](C)CC)NC(=O)[C@H](NC(=O)[C@H](NC(=O)[C@H](CCCN)NC(=O)[C@H]2CCCN2C(=O)[C@H](NC(=O)[C@@H](NC(=O)[C@@H](NC(=O)[C@H](NC(=O)CC[C@H](C)CC)C(C)C)[C@@H](C)O)C(C)C)C(C)C)[C@@H](C)CC)[C@@H](C)OC(=O)[C@H](C(C)C)NC1=O [(4R)-methylhexanoic KF]
A-549
  GI50: 1.2 µM
  TGI: 2.26E−06 Molar
  CC50: 4.24 µM
DU-145
  GI50: 1.2 µM
  LC50: 3.82 µM
  TGI: 2.14E−06 Molar
HELA-APL
  GI50: 1.56 µM
  TGI: 3.47E−06 Molar
  CC50: 6.77 µM
HT-29
  GI50: 0.738 µM
  TGI: 1.54E−06 Molar
  CC50: 3.22 µM
IGROV-ET
  GI50: 0.805 µM
  LC50: 3.26 µM
  TGI: 1.62E−06 Molar
IGROV
  GI50: 0.941 µM
  LC50: 3.5 µM
  TGI: 1.81E−06 Molar
K-562
  GI50: 3.73 µM
  LC50 (50% lethal concentration): 6.77 µM
  TGI: 6.77E−06 Molar
LN-caP
  GI50: 1.5 µM
  LC50 (50% lethal concentration): 4.04 µM
  TGI: 2.46E−06 Molar
LOVO-DOX
  GI50: 0.288 µM
  LC50: 2.19 µM
  TGI: 7.71E−07 Molar
LOVO
  GI50: 0.248 µM
  LC50 (50% lethal concentration): 2.28 µM
  TGI: 7.78E−07 Molar
MEL-28
  GI50: 1.14 µM
  LC50: 3.8 µM
  TGI: 2.09E−06 Molar
PANC-1
  GI50: 4.7 µM
  LC50: 4.24 µM
  TGI: 4.24E−06 Molar
SK-BR-3
  GI50: 1.25 µM
  TGI: 2.20E−06 Molar
  CC50: 3.86 µM
HELA; 48 hours exposure
  GI50: 1.05 µM
  TGI: 1.93E−06 Molar
HELA
  CC50: 3.55 µM

## C/C=C1\NC(=O)[C@H](Cc2ccccc2)NC(=O)[C@@H](C(C)C)NC(=O)[C@@H]([C@@H](C)CC)NC(=O)[C@H](NC(=O)[C@H](NC(=O)[C@H](CCCN)NC(=O)[C@H]2CCCN2C(=O)[C@H](NC(=O)[C@@H](NC(=O)[C@@H](NC(=O)[C@H](NC(=O)CC[C@@H](C)CC)C(C)C)[C@@H](C)O)C(C)C)C(C)C)[C@@H](C)CC)[C@@H](C)OC(=O)[C@H](C(C)C)NC1=O [(4S)-methylhexanoic KF, 4(S)-MeHex-D-Val-L-Thr-L-VaI-D-Val-D-Pro-L-Orn-D-allo-Ile-cyclo(D-allo-Thr-D-allo-Ile-D-Val-L-Phe-Z-Dhb-L-Val)]
A-549
  GI50: 0.267 µM
  CC50: 3.09 µM
DU-145
  GI50: 0.237 µM
  LC50: 2.49 µM
HELA-APL
  GI50: 1.04 µM
  CC50: 4.39 µM
HT-29
  GI50: 0.301 µM
  CC50: 2.71 µM
IGROV-ET
  GI50: 0.225 µM
  LC50: 2.82 µM
IGROV
  GI50: 0.292 µM
  LC50: 2.62 µM
K-562
  GI50: 2.52 µM
  LC50 (50% lethal concentration): 6.77 µM
LN-caP
  GI50: 1.12 µM
  LC50 (50% lethal concentration): 5.93 µM
LOVO-DOX
  GI50: 0.157 µM
  LC50: 0.677 µM
LOVO
  GI50: 0.163 µM
  LC50 (50% lethal concentration): 0.58 µM
MEL-28
  GI50: 1.43 µM
  LC50: 4.72 µM
PANC-1
  GI50: 6.77 µM
  LC50: 6.77 µM
SK-BR-3
  GI50: 0.181 µM
  CC50: 0.606 µM
[1]
  IC50: 2.7 µM
In vivo MTD in CD-1 mice; [4]
  MTD at 5 days: 0.175 to 0.35 mg/kg
In vivo MTD in CD-1 mice; [5]
  MTD: 0.2 mg/kg
In vivo MTD in CD-1 mice; [6]
  MTD: 0.3 mg/kg
In vivo MTD in CD-1 mice; [7]
  MTD at 5 days: 0.175 to 0.35 mg/kg
[2]; [8]
  MTD at 5 days: 0.325 mg/kg
[2]; [9]
  MTD: 0.325 mg/kg
[2]; [10]
  MTD: 0.35 mg/kg
[2]; [11]
  MTD at 5 days: 0.35 mg/kg
HELA; 48 hours exposure
  GI50: 1.18 µM
HELA
  CC50: 4.97 µM
[3]
  IC50: 5.4 µM
